pIC50: −log10 of the molar value. Values after ≈ are worked out from the molar mass of the structure shown.
What was measured:
HeLa = assay: Induction of apoptosis in human HeLa cells at 100 ug/ml after 48 hrs by Annexin V-FITC/propidium iodide staining based flow cytometry relative to control; type: functional
[1] = Growth inhibition of human GRC1 cells at 0.3 g/L after 48 hrs by MTT assay relative to control; type: functional; conditions: read-out: GI
HT-29 [2] = assay: Growth inhibition of human HT-29 cells at 0.5 mg/ml by MTT assay relative to control; type: functional; conditions: read-out: GI
U-266 [3] = assay: Induction of apoptosis in human U266 cells at 2 g/L after 48 hrs by Annexin V-FITC/propidium iodide staining based flow cytometry (Rvb < 3%); type: functional
DLD-1 = assay: Growth inhibition of human DLD1 cells after 24 hrs by MTT assay; type: functional, cell-based; conditions: DLD-1, 24 h
[4] = Antiproliferative activity against human 95-D cells at 2 g/L after 48 hrs by MTT assay relative to control; type: functional
[5] = Antiproliferative activity against human GBC-SD cells assessed as cell survival at 1 mmol/L up to 72 hrs by MTT assay (reference value: 100%); type: functional; conditions: read-out: Survival
SGC-7901 [6] = assay: Induction of apoptosis in human SGC7901 cells at […] after 48 hrs by propidium iodide staining based flow cytometry (reference value: 3.54 +/- 0.47%); type: functional
HepG2 [7] = assay: Antiproliferative activity against human HepG2 cells at 1 mg/ml after 48 hrs by MTT assay relative to control; type: functional
HOS = assay: Growth inhibition of human HOS cells at 3.2 mg/ml after 48 hrs by MTT assay relative to control; type: functional; conditions: read-out: GI
NB-4 = assay: Induction of apoptosis in human NB4 cells after 24 hrs by Annexin V-FITC/propidium iodide staining based flow cytometry relative to control; type: functional
C-33-A = assay: Induction of apoptosis in human C33A cells at 25 ug/ml after 48 hrs by Annexin V-FITC/propidium iodide staining based flow cytometry relative to control; type: functional
[8] = Growth inhibition of human GRC1 cells at 1 g/L after 72 hrs by MTT assay relative to control; type: functional; conditions: read-out: GI
[9] = Growth inhibition of human GRC1 cells at 1.5 g/L after 72 hrs by MTT assay relative to control; type: functional; conditions: read-out: GI
SMMC-7721 = assay: Antiproliferative activity against human SMMC7721 cells at 200 ug/ml after 72 hrs by MTT assay relative to control; type: functional
HepG2 [10] = assay: Antiproliferative activity against human HepG2 cells at 1 mg/ml after 48 hrs relative to control; type: functional
CCRF-CEM = assay: Induction of apoptosis in human CCRF-CEM cells at antiproliferative IC50 after 72 hrs by Annexin V/propidium iodide staining based assay (reference value: 0.8%); type: functional
[11] = Growth inhibition of human GRC1 cells at 1 g/L after 48 hrs by MTT assay relative to control; type: functional; conditions: read-out: GI
HT-29 [12] = assay: Growth inhibition of human HT-29 cells at 32 ml/L after 48 hrs by MTT assay relative to control; type: functional
U-266 [13] = assay: Antiproliferative activity against human U266 cells after 24 hrs by MTT assay; type: functional, cell-based; conditions: U-266, 24 h
MM1.S = assay: Growth inhibition of human MM1S cells at […] after 24 hrs relative to control; type: functional; conditions: read-out: GI
[14] = Antiproliferative activity against human GBC-SD cells after 48 hrs by MTT assay; type: functional, cell-based
SGC-7901 [15] = assay: Induction of apoptosis in human SGC7901 cells at 60 mg/ml after 48 hrs by propidium iodide staining based flow cytometry (reference value: 3.54 +/- 0.47%); type: functional
HT-29 [16] = assay: Growth inhibition of human HT-29 cells at 4 ml/L after 24 hrs by MTT assay relative to control; type: functional
KYSE-150 cell line = assay: Antiproliferative activity against human KYSE-150 cells assessed as cell viability at 1 mg/ml after 24 hrs by MTT assay relative to control; type: functional; conditions: KYSE-150, 24 h, read-out: Activity
HepG2 [17] = assay: Induction of apoptosis in human HepG2 cells at 2 mg/ml by Annexin V-FITC/propidium iodide staining based flow cytometry (reference value: 0.14%); type: functional
BXPC-3 [18] = assay: Induction of apoptosis in human BxPC3 cells at 1.25 mg/ml by flow cytometry (reference value: 2.81%); type: functional
HT-29 [19] = assay: Growth inhibition of human HT-29 cells at 16 ml/L after 48 hrs by MTT assay relative to control; type: functional
HL-60 = assay: Antiproliferative activity against human HL60 cells after 24 hrs by MTT assay; type: functional, cell-based; conditions: HL-60, 24 h
[20] = Growth inhibition of human GRC1 cells at 0.3 g/L after 72 hrs by MTT assay relative to control; type: functional; conditions: read-out: GI
D341 cell line = assay: Induction of apoptosis in human D341 cells at 0.5 to 2 mg/ml after 24 to 72 hrs by Annexin V-FITC/propidium iodide staining based flow cytometry (reference value: 5.74 +/- 0.09%); type: functional
RPMI-8226 [21] = assay: Growth inhibition of human RPMI8226 cells after 24 hrs; type: functional, cell-based; conditions: RPMI-8226, 24 h
BXPC-3 [22] = assay: Induction of apoptosis in human BxPC3 cells at 0.75 mg/ml by flow cytometry (reference value: 2.81%); type: functional
Ca-Ski = assay: Antiproliferative activity against human CaSki cells after 48 hrs by CCK8 assay; type: functional, cell-based
M21 = assay: Induction of apoptosis in human M21 cells at 0.8 mg/ml after 48 hrs by Annexin V-FITC/propidium iodide staining based flow cytometry relative to control; type: functional
HT-29 [23] = assay: Growth inhibition of human HT-29 cells at 2 ml/L after 36 hrs by MTT assay relative to control; type: functional
HT-29 [24] = assay: Growth inhibition of human HT-29 cells at 32 mg/ml after 48 hrs by MTT assay relative to control; type: functional; conditions: HT-29, 48 h, read-out: GI
HT-29 [25] = assay: Growth inhibition of human HT-29 cells at 2 ml/L after 24 hrs by MTT assay relative to control; type: functional
RPMI-8226 [26] = assay: Antiproliferative activity against human RPMI8226 cells after 48 hrs by MTT assay; type: functional, cell-based; conditions: RPMI-8226, 48 h
HepG2 [27] = assay: Antiproliferative activity against human HepG2 cells at 1 mg/ml after 24 hrs by MTT assay relative to control; type: functional
[28] = Growth inhibition of human GRC1 cells at 1.5 g/L after 96 hrs by MTT assay relative to control; type: functional; conditions: read-out: GI
U-266 [29] = assay: Antiproliferative activity against human U266 cells after 48 hrs by MTT assay; type: functional, cell-based; conditions: U-266, 48 h
HK-2 = assay: Antiproliferative activity against human HK2 cells after 48 hrs by CCK8 assay; type: functional, cell-based; conditions: HK-2, 48 h
HT-29 [30] = assay: Growth inhibition of human HT-29 cells at 1 mg/ml by MTT assay relative to control; type: functional; conditions: read-out: GI
UMR108 = assay: Growth inhibition of rat UMR108 cells assessed as cell proliferation at 1.5 mg/ml after 24 hrs by MTT assay (reference value: 0.405 +/- 0.007%); type: functional; conditions: UMR108, 24 h, read-out: Activity

In the case of O=C1CCC[C@@H]2[C@H]3CCCN4CCC[C@@H](CN12)[C@@H]34 [MATRINE], the Activity (HeLa) was 38.41%, the inhibition of growth at 300 µg/mL [1] was 8.8% and the inhibition of growth at 500 µg/mL (HT-29 [2]) was 26.9%. For the same compound, the Activity (U-266 [3]) was 71.05%, the pIC50 (DLD-1) was 2.20 and the Activity [4] was 20%. The viability at 1000 µM [5] was 72.1%, the Activity (SGC-7901 [6]) was 34.59% and the Activity (HepG2 [7]) was 14.81%. It also gave an inhibition of growth at 3200 µg/mL (HOS) of 57%, an Activity (NB-4) of 33% and an Activity (C-33-A) of 5.31%. The inhibition of growth at 1000 µg/mL [8] was 29.2%, the inhibition of growth at 1500 µg/mL [9] was 34% and the Activity (SMMC-7721) was 77.4%. The Activity (HepG2 [10]) was 48.39%, the Activity (CCRF-CEM) was 5.4% and the inhibition of growth at 1000 µg/mL [11] was 25.4%. The “growth inhibition (GI)” value (HT-29 [12]) was 84.2%, the IC50 (U-266 [13]) was 2180 µg/mL (≈ 8.78 mM) and the inhibition of growth at 2 g/mL (MM1.S) was 73%. For the same compound, the pIC50 [14] was 2.70, the Activity (SGC-7901 [15]) was 22.34% and the “growth inhibition (GI)” value (HT-29 [16]) was 17.88%. It also gave a viability at 1000 µg/mL (KYSE-150 cell line) of 69.8%, an Activity (HepG2 [17]) of 38.8% and an Activity (BXPC-3 [18]) of 33.67%. For the same compound, the “growth inhibition (GI)” value (HT-29 [19]) was 75.75%, the pIC50 (HL-60) was 5.44 and the inhibition of growth at 300 µg/mL [20] was 14.9%. For the same compound, the Activity (D341 cell line) was 56.1%, the pIC50 (RPMI-8226 [21]) was 2.36 and the Activity (BXPC-3 [22]) was 48.83%. The pIC50 (Ca-Ski) was 2.24, the Activity (M21) was 40.3% and the “growth inhibition (GI)” value (HT-29 [23]) was 22.06%. For the same compound, the inhibition of growth at 32000 µg/mL (HT-29 [24]) was 84.2%, the “growth inhibition (GI)” value (HT-29 [25]) was 9.2% and the IC50 (RPMI-8226 [26]) was 1640 µg/mL (≈ 6.6 mM). It also gave an Activity (HepG2 [27]) of 6.28%, an inhibition of growth at 1500 µg/mL [28] of 60.2% and an IC50 (U-266 [29]) of 1580 µg/mL (≈ 6.36 mM). It also gave a pIC50 (HK-2) of 2.33, an inhibition of growth at 1000 µg/mL (HT-29 [30]) of 35.9% and a growth at 1500 µg/mL (UMR108) of 0.245%.
